Patent publication US7166435B2 (priority 2001, dated 2007)
Entries after “also recorded” stand apart in the source; their conditions may differ. Like-named read-outs stand apart in the source and are kept apart here.

Assays:
[1] = tested on: Influenza A/Moscow/10/99; assay type: cell-based; conditions: Citrate Buffer control
[2] = tested on: Influenza B/Guangdong/120/00; assay type: cell-based; conditions: Citrate Buffer control
[3] = tested on: influenza virus; assay type: in vivo, ferret; conditions: for Mean Difference (I−J), Weight Change separated into pens: pairwise comparison
[4] = recipient ferrets, 8 per group, >2SD rise in temperature

O=C(O)CC(O)(CC(=O)O)C(=O)O [Citrate Buffer]
A/Moscow log reductions ([1]; 1 minute incubation): 1.00 −log10 TCID50 | Residual A/Moscow titer ([1]; 1 minute incubation): 1.80 −log10 TCID50 | A/Moscow log reductions ([1]; 2 minute incubation): 1.00 −log10 TCID50 | Residual A/Moscow titer ([1]; 2 minute incubation): 1.80 −log10 TCID50 | A/Moscow log reductions ([1]; 5 minute incubation): 2.80 −log10 TCID50 | Residual A/Moscow titer ([1]; 5 minute incubation): 0.00 −log10 TCID50 | B/Guangdong log reductions ([2]; 1 minute incubation): 1.80 −log10 TCID50 | Residual B/Guangdong titer ([2]; 1 minute incubation): 0.00 −log10 TCID50 | B/Guangdong log reductions ([2]; 2 minute incubation): 1.80 −log10 TCID50 | Residual B/Guangdong titer ([2]; 2 minute incubation): 0.00 −log10 TCID50 | B/Guangdong log reductions ([2]; 5 minute incubation): 1.80 −log10 TCID50 | Residual B/Guangdong titer ([2]; 5 minute incubation): 0.00 −log10 TCID50

CCOC(=O)C1=C[C@@H](OC(CC)CC)[C@H](NC(C)=O)[C@@H](N)C1 [Tamiflu ™, oseltamivir phosphate]
No. of Ferrets per pen with Fever (>2SD rise), mild febrile illness ([3]; four recipient ferrets per pen, pens a and b): 2 | X^2 analysis of fever (2SD rise), p PBS versus treatment ([3]; in vivo): 0.106 | X^2 analysis of fever (3SD rise), p PBS versus treatment ([3]; in vivo): 0.106 | seroconversion of recipient ferrets ([3]; in vivo): did not seroconvert; also recorded: no seroconversion | Mean Difference (I−J), Weight Change separated into pens ([3]; (I) group PBS minus (J) treatment group, recipient ferrets, weight loss peak to trough as percentage of day 0 baseline weight): −1.880 | weight loss, p PBS versus treatment ([3]; recipient ferrets): 0.003 | % within Group No., Fever => 2SD rise from baseline: No [3, 4]: 50% | % within Group No., Fever => 2SD rise from baseline: yes [3, 4]: 50% | Count of ferrets, Fever => 2SD rise from baseline: No [3, 4]: 4 | Count of ferrets, Fever => 2SD rise from baseline: yes [3, 4]: 4 | Weight Change separated into pens, Mean ([3]; recipient ferrets, peak to trough as a percentage of the baseline weight on day 0): −.980% | No. of ferrets per group with Fever (>2SD rise), mild febrile illness ([3]; two pens per group): 4 | No. of ferrets per group with Fever (>3SD rise) ([3]; two pens per group): 1

CCOC(=O)C1=C[C@@H](OC(CC)CC)[C@H](NC(C)=O)[C@@H](N)C1 [Tamiflu]
Mean Difference (I−J), Weight Change separated into pens ([3]; (I) treatment group minus (J) 25% horseradish): .161 | Mean Difference (I−J), Weight Change separated into pens ([3]; (I) treatment group minus (J) 50% horseradish): .497 | Mean Difference (I−J), Weight Change separated into pens ([3]; (I) treatment group minus (J) 100% Horseradish): .251 | Mean Difference (I−J), Weight Change separated into pens ([3]; (I) treatment group minus (J) PBS, recipient ferrets): −1.880
